According to patent US20040097521A1, “Clinical treatment” (priority 2000, published 2004):

Experiments:
protein kinase C (PKC) = test: AOM-induced rat colon cancer model, PKC activity; assay type: in vivo; details: colonic mucosa and tumors, P<0.01
Procedure: (§1) Since the efficacy of NAC against colon cancer is significant, the mechanisms of inhibiting colon carcinogenesis were explored by investigating the activities of protein kinase C (PKC), tyrosine protein kinase (TPK), and diacylglycerol kinase (DGK) as well as the 8-isoprostane levels in colonic mucosa and tumor tissues in an azoxy-methane (AOM)-induced rat colon cancer model.
(§2) At seven weeks of age corresponding groups of rats were injected s.c. with azoxymethane (AOM; 15 mg/kg body weight, once weekly for 2 weeks), and different experiments were continued until 38 weeks after the second AOM treatment. Then, the rats were then sacrificed and colonic mucosal as well as tumor samples were evaluated for PKC, TPK, DGK, and 8-isoprostane levels.

myeloma type tumor cells = details: in vitro; cited from earlier work
[1] = test system: primary normal human epidermal keratinocytes (NHEK); test: Effects of NAC or di-NAC on primary normal human epidermal keratinocytes (NHEK) in culture; assay type: cell-based; details: for cell-cell junctions / concentration of E-cadherins / tubulin expression: 2 mM; for cell-cell junctions / concentration of E-cadherins / tubulin expression / concentration for complete suppression of cell proliferation: 3 days; for concentration for complete suppression of cell proliferation: 1 to 10 mM; for toxic side effects: summary
Source text: Primary normal human epidermal keratinocytes (NHEK) obtained from Clonetics Inc. (San Diego, Calif., U.S.A.) were cultivated in the medium provided by the supplier. These cells have a limited life-span of about 15 days in culture and undergo a normal differentiation process of epidermal keratinocytes with a final enucleation and exfoliation. After inoculation the cells acquire a polygonal morphology cell-cell adhesions. The cytoskeleton morphology is quite organized, mainly at the cell borders.
NHEK cells were treated with various millimolar concentrations of NAC or di-NAC, ranging from 1 to 10 mM. The substances were added to the culture medium 24 hours after inoculation. After 3 days of culture in the presence of 2 mM of NAC or di-NAC the cells were analysed for the following marker parameters: […]

[2] = test system: diacylglycerol kinase (DGK); test: AOM-induced rat colon cancer model, DGK activity; assay type: in vivo; details: P<0.01
Procedure: as §1, §2

[3] = test system: localized psoriatic plaques; test: Local treatment of psoriatic plaques in volunteers with NAC or di-NAC cream; assay type: in vivo, human; details: base-cream 10-20 weight %; for outcome of prolonged treatment: weeks to a few months; for most commonly reported side effect: with occlusive bandage
Source text: Five informed volunteers displaying localized psoriatic plaques were locally treated with a base-cream containing 10-20 weight % of NAC or di-NAC. The cream had been applied every night for variable periods—from weeks to a few months—with or without occlusive bandage. The skin of the patient was normally washed between each daily treatment. No other drugs were contemporarily used.

8-isoprostane = test: AOM-induced rat colon cancer model, 8-isoprostane levels; assay type: in vivo; details: colonic tumors, versus control
Procedure: as §1, §2

[4] = test system: DHD/K12-PROb colon adenocarcinoma; test: Colon adenocarcinoma (DHD/K12-PROb cells s.c.) in BD-IX rats; assay type: in vivo; details: weekly injection
Procedure: In this experimental model BD-IX rats were divided into four groups: Groups G1 and G2, designated “cancer groups”, were used to study the effects of NAC on the progression of colon cancer, and Groups G3 and G4, designated “toxicity groups”, were used to study the effects of the treatment on metabolic processes and the parenchyma. DHD/K12-PROb cells were injected subcutaneously into the chest of Group G1 and G2 animals. From 1 to 13 weeks after inoculation the animals in Groups G2 and G4 received a weekly injection of NAC. The animals in Groups G1 and G3 received no treatment.

[5] = cited from earlier work
[6] = test system: tyrosine protein kinase (TPK); test: AOM-induced rat colon cancer model, TPK activity; assay type: in vivo; details: colonic mucosal and tumor, P<0.01
Procedure: as §1, §2

[7] = test system: 4NQO-induced rat malignant oral keratinocytes; test: 4NQO-induced rat malignant oral keratinocytes transplanted orthotopically to athymic mice; assay type: in vivo; details: for potential to metastasise: differentiated rat malignant oral keratinocytes, versus untreated
Source text: The effects of NAC or di-NAC on the metastatic capacity of clonal populations of 4NQO-induced rat malignant oral keratinocytes were examined after orthotopic transplantation to athymic mice. Polygonal cells and spindle cells formed well-differentiated squamous cell carcinomas (keratin positive and vimentin negative) and undifferentiated spindle cell tumors (keratin negative and vimentin positive), respectively, in all animals at the site of inoculation (floor of mouth).

[8] = test system: 1,2-dimethylhydrazine (DMH)-induced large intestinal tumors; test: DMH-induced large intestinal tumors in rats; assay type: in vivo, male Sprague-Dawley rats
Source text: The effects of daily NAC treatment or intermittent NAC treatments on intestinal tumors, which had been induced by treating male Sprague-Dawley rats with 1,2-dimethylhydrazine (DMH), were investigated.

[9] = test system: human colon carcinoma cells (CaCo2); test: Effects of NAC and di-NAC on human colon carcinoma cells (CaCo2) in culture; assay type: cell-based; details: for local concentration for maximum inhibition of proliferation (no growth) / time to differentiate when treated: CaCo2; for toxic side effects: CaCo2, summary
Procedure: An established cell line of human colon carcinoma cells was used (CaCo2). CaCo2 is a proliferating human colon carcinoma cell line displaying irregular morphology, forming multiple cell layers with scarce microvillous structures and large intercellular spaces.
The CaCo2 cells were treated with various millimolar concentrations of NAC, ranging from 2 to 10 mM. NAC was added to the culture medium 24 hours after inoculation of the cells. After 3 days of culture in the presence of NAC the cells were analyzed for the following marker parameters: […]

[10] = test system: human colon carcinoma cells (CaCo2); test: as above; assay type: cell-based; details: CaCo2, di-NAC treatment
arteriosclerosis = details: WHHL rabbits; cited from earlier work

Compound: CC(=O)N[C@@H](CS)C(=O)O [NAC, N-acetyl-L-cysteine]
- Ca2+ dependent and independent PKC activities (protein kinase C (PKC)): significantly inhibited
- activity against myeloma type tumor cells (myeloma type tumor cells): tumor proliferation inhibitory activity
- local concentration for maximum inhibition of proliferation (no growth) ([1]; NHEK): about 1 mM
- time to differentiate when treated ([1]; NHEK): 3 days
- cell-cell junctions ([1]; NHEK): increased number
- concentration of E-cadherins ([1]; NHEK): increased
- tubulin expression ([1]; NHEK): reduced
- concentration for complete suppression of cell proliferation ([1]; NHEK): 2 mM
- cell viability ([1]; NHEK, all doses, up to 10 mM): unaffected
- toxic side effects ([1]; NHEK): no toxic side effects
- apoptosis / necrosis ([1]; NHEK, up to 10 mM): Neither apoptosis nor necrosis was observed
- concentration at which keratinocytes completely differentiate [1]: 1 mM
- minimum dose required to accelerate differentiation of normal keratinocytes [1]: 0.5 mM
- DGK activity [2]: significant increased
- outcome of prolonged treatment [3]: complete remission of all symptoms
- most commonly reported side effect [3]: local hitching
- 8-isoprostane levels (8-isoprostane): lower levels
- tumor growth ([4]; female and male rats): significantly slower
- life span ([4]; 1 to 13 weeks after inoculation): extended life span
- side effects when used clinically ([5]; even after high doses, such as 10 g/day): no significant side effects
- clearance ([5]; in vivo): relatively rapid
- side effects after intravenous injection ([5]; paracetamol poisoning, 10 grams i.v. in 15 minutes, then half of the dose in 30 min): without any reported side effects
- TPK activities [6]: significantly suppressed
- potential to metastasise [7]: decreased potential to metastasise
- inhibition of clones of polygonal cells ([7]; exogenous NAC): markedly inhibited
- inhibition of spindle cells ([7]; exogenous NAC): inhibited
- large intestinal tumor mass index ([8]; NAC-treated group, p<0.001 vs control): 0.04
- adenocarcinomas in the colons ([8]; daily NAC treatment): no adenocarcinomas were present
- large intestinal tumor burden ([8]; intermittent NAC treatment, p=0.001 vs control): 1 tumors/treatment group
- local concentration for maximum inhibition of proliferation (no growth) [9]: about 1 mM
- time to differentiate when treated [9]: 3 days
- apoptosis / necrosis ([9]; CaCo2, 2 to 10 mM, 3 days): Neither apoptosis nor necrosis was observed
- concentration of maximum effect on decrease of cell proliferation ([9]; CaCo2, 2 to 10 mM, 3 days of culture): 2 mM
- cell-cell adhesion structures ([9]; CaCo2, 3 days of culture): increased number
- tubulin expression ([9]; CaCo2, 3 days of culture): strongly reduced
- cell viability ([9]; CaCo2, all doses added (2 to 10 mM), 3 days): unaffected
- toxic side effects [9]: without any detectable toxic side effects
- concentration at which reversion of colon cancer cells is induced [9]: 1 mM
- concentration at which colon carcinoma completely differentiate [9]: 5 mM

Compound: CC(=O)N[C@@H](CSSC[C@H](NC(C)=O)C(=O)O)C(=O)O [di-NAC, N,N′-diacetyl-L-cystine]
- local concentration for maximum inhibition of proliferation (no growth) ([1]; NHEK): about 1 mM
- time to differentiate when treated ([1]; NHEK): 3 days
- cell-cell junctions ([1]; NHEK): increased number
- concentration of E-cadherins ([1]; NHEK): increased
- tubulin expression ([1]; NHEK): reduced
- concentration for complete suppression of cell proliferation ([1]; NHEK): 2 mM
- toxic side effects ([1]; NHEK): no toxic side effects
- concentration at which keratinocytes completely differentiate [1]: 1 mM
- minimum dose required to accelerate differentiation of normal keratinocytes [1]: 0.5 mM
- outcome of prolonged treatment [3]: complete remission of all symptoms
- most commonly reported side effect [3]: local hitching
- E-cadherin expression [10]: increased
- proliferation [10]: decreased proliferation
- potential to metastasise [7]: decreased potential to metastasise
- effect on arteriosclerosis (arteriosclerosis): inhibits arteriosclerosis
- local concentration for maximum inhibition of proliferation (no growth) [9]: about 1 mM
- time to differentiate when treated [9]: 3 days
- toxic side effects [9]: without any detectable toxic side effects
- concentration at which reversion of colon cancer cells is induced [9]: 1 mM
- concentration at which colon carcinoma completely differentiate [9]: 5 mM
